Results on three substances are retold here after patent US20230226087A1, “PHOSPHOLIPIDS AND PHOSPHOLIPID METABOLITES FOR TREATING VIRAL AND BACTERIAL PNEUMONIA AND SEPSIS” (ANDREAS HETTICH GMBH & CO. KG, priority 2020, published 2023).

Read-outs that look alike come from different tables or passages of the source.

The subject of data set [1] is plasma LysoPC level. As to the kind of experiment: Change of plasma LysoPC level after oral ingestion in a fasted healthy subject (HPTLC assay of LysoPC). Conditions: 600 mg alpha-GPC.
Protocol: (§1) LysoPC from plasma, serum or blood was extracted in one step by a newly developed method and subsequently assayed by using HPTLC (high performance thin layer chromatography).
(§2) The extraction of 50 μl of sample each was effected using salt-assisted extraction. For this purpose, a ceramic sphere (3.4 mm, ceramic) was charged in a 2 ml twist-top vial, and then 50 μl of distilled water, 50 μl of sample, 192 μl of concentrated ammonium acetate solution, and 300 μl of acetonitrile/1-pentanol (2.5:1 v/v) were added. After closing, the vial is intensively shaken centrifugally using dual centrifugation (ZentriMix 380 R, from the company Hettich, Tuttlingen, Germany) at 2000 rpm and 20° C. for 4 min. Subsequently, the vials are centrifuged at 16,000 rpm for 10 min. From the upper phase, 200 μl is removed, transferred to a crimp-top vial with a microinsert, crimped, and sent to HPTLC.
(§3) For the determination of the LysoPC concentrations using HPTLC, five LysoPC standards (16, 40, 80, 120 and 160 μM LysoPC in acetonitrile/1-pentanol (2.5:1 v/v.) and up to 12 sample extracts were applied to a 20×10 cm silica gel plate using the automated applying device ATS4 (CAMAG, Switzerland). The volume applied is 6 μl each.
(§4) After the application and after a dwell time of five minutes to ensure uniform evaporation of the solvent, the plate is placed into a preconditioned DC chamber filled with 35 ml of chloroform/methanol/water (65:35:4 v/v) and 200 μl of 25% ammonia solution for 20 min. Within this period, a travelling distance of about 9 cm is reached. […] After cooling to room temperature again, the optical density of the LysoPC bands (Rf about 0.1) is determined using the evaluation unit (TLC Visualizer 2, CAMAG, Switzerland), and the LysoPC concentrations were evaluated by comparing with the calibration substances using the HPTLC software “visionCATS” (Camag, Switzerland). If the LysoPC value is determined, not directly from plasma, but from whole blood, then the value needs to be corrected by the respective hematocrit value and by a factor of 1.3. […]
Data set [2] is described as follows: Assaying the total amount of LysoPC in the body (distribution between plasma and deeper compartments). In kind it is in vivo, human. The method, then: To the therapeutic approach for the treatment of pneumonias of different origins and of sepsis as described herein, the determination of the total amount of LysoPC in the body is essential. The latter could be determined by determining the LysoPC concentration in the plasma, which is in equilibrium with the deeper compartments. To this end, one subject was administered, on the one hand, a high amount of phospholipid from egg (Example 1 (Determination of Plasma LysoPC) and Example 2). The plasma volume was calculated, the increase of the LysoPC concentration was determined, and the plasma LysoPC level accompanying this concentration change was calculated. This LysoPC amount and its ratio to the amount taken up yields the distribution of the LysoPC equivalent taken up between the plasma and the deeper compartments, from which the total LysoPC amount in the body can be calculated. It was considered that 100% of the phospholipid is taken up as LysoPC.
In another experiment, a subject was administered a high amount (25 g) of pure triglyceride (Example 3). The plasma volume was calculated. The lowering of the LysoPC concentration because of the consumption of LysoPC for producing PC for the biosynthesis of chylomicrons was determined (One chylomicron contains about 5-10% PC as a ratio to the amount of triglyceride). The amount of plasma LysoPC involved in this concentration change was calculated. This amount of LysoPC and its ratio to the amount taken up yields the distribution of the LysoPC equivalent taken up between the plasma and the deeper compartments, from which the total LysoPC amount in the body can be calculated. It was considered that 100% of the plasma LysoPC was converted to PC.
From the results of Examples 2 and 3, the amount of LysoPC in deeper compartments could be estimated at about 95% of the total body LysoPCs, i.e., about 5% is present in the blood plasma.
On this basis, the amount of total body LysoPCs can be estimated to a minimum of 10 g. […]

For data set [3] the following is noted: squirrel monkeys; cited from earlier work.
The conditions of data set [4]: mice; cited from earlier work.
Another data set deals with albumin (Homo sapiens, UniProt P02768). The note with it: cited from earlier work.
Sequence of albumin (P02768 25-609): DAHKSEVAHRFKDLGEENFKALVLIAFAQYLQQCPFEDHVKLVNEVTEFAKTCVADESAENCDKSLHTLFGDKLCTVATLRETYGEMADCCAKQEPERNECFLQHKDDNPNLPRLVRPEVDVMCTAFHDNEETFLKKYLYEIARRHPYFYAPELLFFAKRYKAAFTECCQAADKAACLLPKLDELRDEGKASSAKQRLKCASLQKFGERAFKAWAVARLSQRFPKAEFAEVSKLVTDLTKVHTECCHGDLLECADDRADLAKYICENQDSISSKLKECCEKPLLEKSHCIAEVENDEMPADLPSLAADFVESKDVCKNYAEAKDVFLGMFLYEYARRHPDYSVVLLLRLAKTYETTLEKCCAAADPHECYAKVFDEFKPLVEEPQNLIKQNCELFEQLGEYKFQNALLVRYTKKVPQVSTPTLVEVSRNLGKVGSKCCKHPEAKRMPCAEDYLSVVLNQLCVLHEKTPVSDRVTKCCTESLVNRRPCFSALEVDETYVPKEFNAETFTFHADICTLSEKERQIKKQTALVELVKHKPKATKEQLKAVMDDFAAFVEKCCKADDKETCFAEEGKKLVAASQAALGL
Another data set relates to E. coli. Conditions: mice, cited from earlier work.
In data set [5] the test system is septic shock (Gram positive and Gram negative). The note with it: rat, cited from earlier work.
The subject of a further data set is sepsis models. Conditions: mice, 25 mg/kg LysoPC i.p., cited from earlier work.
Data set [6] relates to production of antigen-specific antibodies. Conditions: mice, administered simultaneously with various antigens; cited from earlier work.
The test system of data set [7] is plasma LysoPC level. Conditions: human, in vivo.
Protocol: as §1, §2, §3, §4

Regarding alpha-glycerophosphocholine [alpha-GPC], the “increase of plasma LysoPC level” value in the data set on plasma LysoPC level [1] (rise within 30 min after the first hour, then constant until end (2 hours)) is listed as “about 20%”. Moreover, the “change of plasma LysoPC level in the first hour” value with plasma LysoPC level [1] (starting level about 190 μM) is on record as “did not change”.

On to lyso-phosphatidylcholine [LysoPC], for which the “amount of total body LysoPCs” value in data set [2] (for mean 300 μM and plasma volume about 3.5 liters (about 500 mg in plasma)) is recorded as “about 10 g”. Also, the “proportion of total body LysoPC located in the blood plasma” value in [2] (from Examples 2 and 3) was 4-5%. Besides, in [2] (healthy subjects, based on estimated total body half life of 2.5 hours), the “daily conversion rate of LysoPC” value is “about 50 g”. The LysoPC half life in data set [3] was 1.3 h. Besides, in data set [4], the LysoPC half life result is “about 4 hours”. For the same substance, the “number of binding sites of albumin for LysoPC” value at albumin is recorded as 3-4. Besides, the “share of plasma LysoPCs bound by albumin” value on albumin (plasma) is “about 80%”. Moreover, the survival with E. coli (E. coli sepsis, 20 mg/kg LysoPC s.c., from about 20%) was 90%. Further, the “duration of increased LysoPC level after a single injection” value in the data set on E. coli (single injection) is recorded as “about 4 hours”. Also, the IL1-β levels result in [5] (accompanying the protecting effects) is given as “reduction of the IL1-β levels”. In [5] (higher doses of up to 100 mg/kg), the “effect of higher doses” value was “incapable or even harmful”. Further, the “effect on damage to the organs and dysfunctions” value in data set [5] (up to 10 mg/kg, i.v.) was “reduce the damage to the organs and dysfunctions significantly”. In the data set with sepsis models, the bacterial clearance result is on record as “improved”. Also, in the data set with sepsis models (from 0%), the “survival, first sepsis model” value is 69% and the “survival, second sepsis model” value is reported as 40%. Besides, the “effect in the production of antigen-specific antibodies (adjuvant)” value in [6] is “identical to that of alum”.

Turning to triglycerides, the “share of the consumed LysoPC amount (1700 mg) taken from the plasma” value with plasma LysoPC level [7] is given as 3.9%.
